Data taken from patent US20250282768A1 (Janssen Pharmaceutica NV, priority 2022, published 2025).

System: p-IKKa levels in L363 (NIK translocated multiple myeloma) cells
Test: Assay 2: Effect of compounds on p-IKKa levels in L363 (NIK translocated multiple myeloma) cells
Assay type: cell-based
Conditions: Homo sapiens, L-363, 6 h, read-out: Assay 2 IC50 (nM), p-IKKa (Ser 176/180) in BAFF stimulated L363 cells with MG132, 6 h; average if tested more than once
How it was run: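 L363 cells incubated overnight ± 250 ng/ml BAFF, then 6 h at 37 °C with compound (0.3% DMSO) ± 10 μM MG132. Lysates assayed for p-IKKa (Ser176/180) by AlphaLISA SureFire. IC50 from sigmoidal fit of % inhibition normalized to BAFF/MG132-stimulated and unstimulated controls.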

Question: How did the IC50 turn out when `CN1CC[C@@](O)(c2cc(-c3cccc(-c4ccnc(N[C@H](CO)c5ccccn5)n4)n3)no2)C1=O` [Example 388, (R)-3-Hydroxy-3-(3-(6-(2-(((S)-2-hydroxy-1-(pyridin-2-yl)ethyl)amino)pyrimidin-4-yl)pyridin-2-yl)isoxazol-5-yl)-1-methylpyrrolidin-2-one] was run?
Answer: Its IC50 is 50 to 500 nM.

Question: Which IC50 does the source give for `CCC(Nc1nccc(-c2cccc(-c3cc([C@]4(O)CCN(C)C4=O)on3)n2)n1)c1ccn(C)n1` (stereo partly drawn) [Example 389, (3R)-3-Hydroxy-1-methyl-3-(3-(6-(2-((1-(1-methyl-1H-pyrazol-3-yl)propyl)amino)pyrimidin-4-yl)pyridin-2-yl)isoxazol-5-yl)pyrrolidin-2-one] here?
Answer: The IC50 was 50 to 500 nM.

Question: `CN1CC[C@@](O)(c2cc(-c3cccc(-c4ccnc(NC(c5ccccn5)C5CC5)n4)n3)no2)C1=O` (stereo partly drawn) [Example 390, (3R)-3-(3-(6-(2-((Cyclopropyl(pyridin-2-yl)methyl)amino)pyrimidin-4-yl)pyridin-2-yl)isoxazol-5-yl)-3-hydroxy-1-methylpyrrolidin-2-one] was tested. Which IC50 did it give?
Answer: The IC50 was greater than 500 nM.

Question: Which IC50 does the source give for `CCC(Nc1nccc(-c2cccc(-c3cc([C@]4(O)CCN(C)C4=O)on3)n2)n1)c1ccn(CC)n1` (stereo partly drawn) [Example 391, (3R)-3-(3-(6-(2-((1-(1-Ethyl-1H-pyrazol-3-yl)propyl)amino)pyrimidin-4-yl)pyridin-2-yl)isoxazol-5-yl)-3-hydroxy-1-methylpyrrolidin-2-one] here?
Answer: The IC50 was greater than 500 nM.

Question: Which IC50 does the source give for `COc1cn(C)nc1C(C)Nc1nccc(-c2cccc(-c3cc([C@]4(O)CCN(C)C4=O)on3)n2)n1` (stereo partly drawn) [Example 392, (3R)-3-Hydroxy-3-(3-(6-(2-((1-(4-methoxy-1-methyl-1H-pyrazol-3-yl)ethyl)amino)pyrimidin-4-yl)pyridin-2-yl)isoxazol-5-yl)-1-methylpyrrolidin-2-one] here?
Answer: Its IC50 is greater than 500 nM.

Question: `C[C@@H](Nc1nccc(-c2cccc(-c3cc([C@]4(O)CCN(C)C4=O)on3)n2)n1)c1cn2ccccc2n1` [Example 393, (R)-3-Hydroxy-3-(3-(6-(2-(((R)-1-(imidazo[1,2-a]pyridin-2-yl)ethyl)amino)pyrimidin-4-yl)pyridin-2-yl)isoxazol-5-yl)-1-methylpyrrolidin-2-one] was tested. Which IC50 did it give?
Answer: The IC50 was 50 to 500 nM.

Question: `C[C@H](Nc1nccc(-c2cccc(-c3cc([C@]4(O)CCN(C)C4=O)on3)n2)n1)c1cn2ccccc2n1` [Example 394, (R)-3-Hydroxy-3-(3-(6-(2-(((S)-1-(imidazo[1,2-a]pyridin-2-yl)ethyl)amino)pyrimidin-4-yl)pyridin-2-yl)isoxazol-5-yl)-1-methylpyrrolidin-2-one] was tested. Which IC50 did it give?
Answer: Its IC50 is greater than 500 nM.

Question: How did the IC50 turn out when `CC(Nc1nccc(-c2cccc(-c3cc([C@]4(O)CCN(C)C4=O)on3)n2)n1)c1nnc2ncccn12` (stereo partly drawn) [Example 395, (3R)-3-(3-(6-(2-((1-([1,2,4]Triazolo[4,3-a]pyrimidin-3-yl)ethyl)amino)pyrimidin-4-yl)pyridin-2-yl)isoxazol-5-yl)-3-hydroxy-1-methylpyrrolidin-2-one] was run?
Answer: The IC50 was 50 to 500 nM.

Question: How did the IC50 turn out when `CN(C)C[C@H](Nc1nccc(-c2cccc(-c3cc([C@]4(O)CCN(C)C4=O)on3)n2)n1)c1ccccc1` [Example 396, (R)-3-(3-(6-(2-(((R)-2-(Dimethylamino)-1-phenylethyl)amino)pyrimidin-4-yl)pyridin-2-yl)isoxazol-5-yl)-3-hydroxy-1-methylpyrrolidin-2-one] was run?
Answer: Its IC50 is greater than 500 nM.

Question: How did the IC50 turn out when `CN(C)C[C@@H](Nc1nccc(-c2cccc(-c3cc([C@]4(O)CCN(C)C4=O)on3)n2)n1)c1ccccc1` [Example 397, (R)-3-(3-(6-(2-(((S)-2-(Dimethylamino)-1-phenylethyl)amino)pyrimidin-4-yl)pyridin-2-yl)isoxazol-5-yl)-3-hydroxy-1-methylpyrrolidin-2-one] was run?
Answer: The IC50 was greater than 500 nM.

Question: With `CN1CC[C@@](O)(c2cc(-c3cccc(-c4ccnc(Nc5nccn5C)n4)n3)no2)C1=O` [Example 398, (R)-3-Hydroxy-1-methyl-3-(3-(6-(2-((1-methyl-1H-imidazol-2-yl)amino)pyrimidin-4-yl)pyridin-2-yl)isoxazol-5-yl)pyrrolidin-2-one] as the compound, how does the IC50 read?
Answer: Its IC50 is greater than 500 nM.

Question: With `CN1CC[C@@](O)(c2cc(-c3cccc(-c4ccnc(Nc5cn(CCF)cn5)n4)n3)no2)C1=O` [Example 399, (R)-3-(3-(6-(2-((1-(2-Fluoroethyl)-1H-imidazol-4-yl)amino)pyrimidin-4-yl)pyridin-2-yl)isoxazol-5-yl)-3-hydroxy-1-methylpyrrolidin-2-one] as the compound, how does the IC50 read?
Answer: The IC50 was less than 50 nM.

Question: Which IC50 does the source give for `CCn1cc(Nc2nccc(-c3cccc(-n4cc([C@]5(O)CCN(C)C5=O)nn4)n3)n2)c(C)n1` [Example 402, (R)-3-(1-(6-(2-((1-Ethyl-3-methyl-1H-pyrazol-4-yl)amino)pyrimidin-4-yl)pyridin-2-yl)-1H-1,2,3-triazol-4-yl)-3-hydroxy-1-methylpyrrolidin-2-one] here?
Answer: The IC50 was less than 50 nM.

Question: With `CN1CC[C@@](O)(c2cn(-c3cccc(-c4ccnc(Nc5cnn(CC(F)(F)F)c5)n4)n3)nn2)C1=O` [Example 403, (R)-3-Hydroxy-1-methyl-3-(1-(6-(2-((1-(2,2,2-trifluoroethyl)-1H-pyrazol-4-yl)amino)pyrimidin-4-yl)pyridin-2-yl)-1H-1,2,3-triazol-4-yl)pyrrolidin-2-one] as the compound, how does the IC50 read?
Answer: The IC50 was less than 50 nM.

Question: Which IC50 does the source give for `CN1CC[C@@](O)(c2cc(-c3cccc(-c4ccnc(Nc5cnn6c5CCCC6)n4)n3)on2)C1=O` [Example 406, (R)-3-Hydroxy-1-methyl-3-(5-(6-(2-((4,5,6,7-tetrahydropyrazolo[1,5-a]pyridin-3-yl)amino)pyrimidin-4-yl)pyridin-2-yl)isoxazol-3-yl)pyrrolidin-2-one] here?
Answer: Its IC50 is less than 50 nM.

Question: For `CN1CC[C@@](O)(c2cc(-c3cccc(-c4ccnc(Nc5cnn(C)c5Cl)n4)n3)on2)C1=O` [Example 407, (R)-3-(5-(6-(2-((5-Chloro-1-methyl-1H-pyrazol-4-yl)amino)pyrimidin-4-yl)pyridin-2-yl)isoxazol-3-yl)-3-hydroxy-1-methylpyrrolidin-2-one], which IC50 is on record?
Answer: The IC50 was less than 50 nM.

Question: For `Cc1cc(Nc2nccc(-c3cccc(-c4cc([C@@]5(O)C(=O)N(C)CC5(F)F)on4)n3)n2)ccn1` [Example 408, (R)-4,4-Difluoro-3-hydroxy-1-methyl-3-(3-(6-(2-((2-methylpyridin-4-yl)amino)pyrimidin-4-yl)pyridin-2-yl)isoxazol-5-yl)pyrrolidin-2-one], which IC50 is on record?
Answer: The IC50 was less than 50 nM.

Question: `CN1CC(F)(F)[C@@](O)(c2cc(-c3cccc(-c4ccnc(Nc5cnn(C)c5Cl)n4)n3)no2)C1=O` [Example 409] was tested. Which IC50 did it give?
Answer: Its IC50 is less than 50 nM.

Question: How did the IC50 turn out when `CCn1ccc(Nc2nccc(-c3cccc(-c4cc([C@]5(O)CCN(C)C5=O)on4)n3)n2)n1` [Example 410, (R)-3-(3-(6-(2-((1-Ethyl-1H-pyrazol-3-yl)amino)pyrimidin-4-yl)pyridin-2-yl)isoxazol-5-yl)-3-hydroxy-1-methylpyrrolidin-2-one] was run?
Answer: Its IC50 is less than 50 nM.

Question: With `CN1CC[C@@](O)(c2cc(-c3cccc(-c4ccnc(Nc5cc(OC(F)F)n(C)n5)n4)c3)no2)C1=O` [Example 412, (R)-3-(3-(3-(2-((5-(Difluoromethoxy)-1-methyl-1H-pyrazol-3-yl)amino)pyrimidin-4-yl)phenyl)isoxazol-5-yl)-3-hydroxy-1-methylpyrrolidin-2-one] as the compound, how does the IC50 read?
Answer: Its IC50 is 50 to 500 nM.

Question: For `CN1CC[C@@](O)(c2cc(-c3cccc(-c4ccnc(Nc5cn(CC(F)F)nc5OC5CC5)n4)c3)no2)C1=O` [Example 413, (R)-3-(3-(3-(2-((3-Cyclopropoxy-1-(2,2-difluoroethyl)-1H-pyrazol-4-yl)amino)pyrimidin-4-yl)phenyl)isoxazol-5-yl)-3-hydroxy-1-methylpyrrolidin-2-one], which IC50 is on record?
Answer: The IC50 was 50 to 500 nM.

Question: `CN1CC[C@@](O)(c2cc(-c3cccc(-c4ccnc(Nc5cc(N)n(C)n5)n4)c3)no2)C1=O` [Example 414, (R)-3-(3-(3-(2-((5-Amino-1-methyl-1H-pyrazol-3-yl)amino)pyrimidin-4-yl)phenyl)isoxazol-5-yl)-3-hydroxy-1-methylpyrrolidin-2-one] was tested. Which IC50 did it give?
Answer: The IC50 was greater than 500 nM.

Question: Which IC50 does the source give for `CN1CC[C@@](O)(c2cc(-c3cccc(-c4ccnc(Nc5cn(C)nc5N)n4)c3)no2)C1=O` [Example 415, (R)-3-(3-(3-(2-((3-Amino-1-methyl-1H-pyrazol-4-yl)amino)pyrimidin-4-yl)phenyl)isoxazol-5-yl)-3-hydroxy-1-methylpyrrolidin-2-one] here?
Answer: Its IC50 is greater than 500 nM.

Question: How did the IC50 turn out when `CN1CC[C@@](O)(c2cc(-c3cccc(-c4ccnc(Nc5cc6n(n5)CCNC6)n4)c3)no2)C1=O` [Example 416, (R)-3-Hydroxy-1-methyl-3-(3-(3-(2-((4,5,6,7-tetrahydropyrazolo[1,5-a]pyrazin-2-yl)amino)pyrimidin-4-yl)phenyl)isoxazol-5-yl)pyrrolidin-2-one] was run?
Answer: The IC50 was greater than 500 nM.

Question: `CN1CC[C@@](O)(c2cc(-c3cccc(-c4ccnc(N5CCn6nc(N)cc6C5)n4)c3)no2)C1=O` [Example 417, (R)-3-(3-(3-(2-(2-Amino-6,7-dihydropyrazolo[1,5-a]pyrazin-5(4H)-yl)pyrimidin-4-yl)phenyl)isoxazol-5-yl)-3-hydroxy-1-methylpyrrolidin-2-one] was tested. Which IC50 did it give?
Answer: Its IC50 is greater than 500 nM.

Question: How did the IC50 turn out when `CN1CC[C@@](O)(c2cc(-c3cccc(-c4ccnc(Nc5nn(C)c6c5CNC6)n4)c3)no2)C1=O` [Example 418, (R)-3-Hydroxy-1-methyl-3-(3-(3-(2-((1-methyl-1,4,5,6-tetrahydropyrrolo[3,4-c]pyrazol-3-yl)amino)pyrimidin-4-yl)phenyl)isoxazol-5-yl)pyrrolidin-2-one] was run?
Answer: Its IC50 is greater than 500 nM.

Question: `CN1CC[C@@](O)(c2cc(-c3cccc(-c4ccnc(Nc5cnn6c5CNCC6)n4)c3)no2)C1=O` [Example 419, (R)-3-Hydroxy-1-methyl-3-(3-(3-(2-((4,5,6,7-tetrahydropyrazolo[1,5-a]pyrazin-3-yl)amino)pyrimidin-4-yl)phenyl)isoxazol-5-yl)pyrrolidin-2-one] was tested. Which IC50 did it give?
Answer: Its IC50 is greater than 500 nM.

Question: Which IC50 does the source give for `CN1CC[C@@](O)(c2cc(-c3cccc(-c4ccnc(Nc5nn(C)c6ccncc56)n4)c3)no2)C1=O` [Example 420, (R)-3-Hydroxy-1-methyl-3-(3-(3-(2-((1-methyl-1H-pyrazolo[4,3-c]pyridin-3-yl)amino)pyrimidin-4-yl)phenyl)isoxazol-5-yl)pyrrolidin-2-one] here?
Answer: Its IC50 is greater than 500 nM.
